# From PubChem BioAssay (NCI)
#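 The compound was tested at five concentrations on cells cultured in 96-well plates, with a 48-hour exposure period. TGI is the concentration that stops growth completely.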
# Columns and labels:
# Experiment in all cases: growth of human tumour cells (NCI), 48 h
# 786-0 renal = system: 786-0 renal
# A498 renal = system: A498 renal
# A549 NSCLC = system: A549 NSCLC
# ACHN renal = system: ACHN renal
# BT-549 breast = system: BT-549 breast
# CAKI-1 renal = system: CAKI-1 renal
# CCRF-CEM leukemia = system: CCRF-CEM leukemia
# COLO 205 colon = system: COLO 205 colon
# DU-145 prostate = system: DU-145 prostate
# EKVX NSCLC = system: EKVX NSCLC
# HCC-2998 colon = system: HCC-2998 colon
# HCT-116 colon = system: HCT-116 colon
# HCT-15 colon = system: HCT-15 colon
# HL-60(TB) leukemia = system: HL-60(TB) leukemia
# HOP-62 NSCLC = system: HOP-62 NSCLC
# HOP-92 NSCLC = system: HOP-92 NSCLC
# HS 578T breast = system: HS 578T breast
# HT29 colon = system: HT29 colon
# IGROV1 ovarian = system: IGROV1 ovarian
# K-562 leukemia = system: K-562 leukemia
# KM12 colon = system: KM12 colon
# LOX IMVI melanoma = system: LOX IMVI melanoma
# M14 melanoma = system: M14 melanoma
# MALME-3M melanoma = system: MALME-3M melanoma
# MCF7 breast = system: MCF7 breast
# MDA-MB-231 breast = system: MDA-MB-231 breast
# MDA-N = system: MDA-N
# MOLT-4 leukemia = system: MOLT-4 leukemia
# NCI-H226 lung = system: NCI-H226 lung
# NCI-H23 lung = system: NCI-H23 lung
# NCI-H460 lung = system: NCI-H460 lung
# NCI/ADR-RES ovarian = system: NCI/ADR-RES ovarian
# OVCAR-3 ovarian = system: OVCAR-3 ovarian
# OVCAR-4 ovarian = system: OVCAR-4 ovarian
# OVCAR-5 ovarian = system: OVCAR-5 ovarian
# OVCAR-8 ovarian = system: OVCAR-8 ovarian
# PC-3 prostate = system: PC-3 prostate
# RXF 393 renal = system: RXF 393 renal
# SF-268 CNS = system: SF-268 CNS
# SF-295 CNS = system: SF-295 CNS
# SF-539 CNS = system: SF-539 CNS
# SK-MEL-2 melanoma = system: SK-MEL-2 melanoma
# SK-MEL-28 melanoma = system: SK-MEL-28 melanoma
# SK-MEL-5 melanoma = system: SK-MEL-5 melanoma
# SK-OV-3 ovarian = system: SK-OV-3 ovarian
# SN12C renal = system: SN12C renal
# SNB-19 CNS = system: SNB-19 CNS
# SNB-75 CNS = system: SNB-75 CNS
# SR leukemia = system: SR leukemia
# T-47D breast = system: T-47D breast
# TK-10 renal = system: TK-10 renal
# UACC-257 melanoma = system: UACC-257 melanoma
# UACC-62 melanoma = system: UACC-62 melanoma
# UO-31 renal = system: UO-31 renal
# NCI-H522 lung = system: NCI-H522 lung
# RPMI-8226 leukemia = system: RPMI-8226 leukemia
# SW-620 colon = system: SW-620 colon
# MDA-MB-435 = system: MDA-MB-435
# U251 CNS = system: U251 CNS
structure (smiles),measurement,setting,value
O=C(/C=C/c1ccc(C(F)(F)F)cc1)c1c([O-])on[n+]1-c1ccccc1,TGI,786-0 renal,1.71 µM
same,TGI,A498 renal,14.8 µM
same,TGI,A549 NSCLC,12.3 µM
same,TGI,ACHN renal,2.94 µM
same,TGI,BT-549 breast,3.04 µM
same,TGI,CAKI-1 renal,0.879 µM
same,TGI,CCRF-CEM leukemia,0.188 µM
same,TGI,COLO 205 colon,4.91 µM
same,TGI,DU-145 prostate,7.17 µM
same,TGI,EKVX NSCLC,5.83 µM
same,TGI,HCC-2998 colon,4.18 µM
same,TGI,HCT-116 colon,3.85 µM
same,TGI,HCT-15 colon,3.12 µM
same,TGI,HL-60(TB) leukemia,0.459 µM
same,TGI,HOP-62 NSCLC,13 µM
same,TGI,HOP-92 NSCLC,3.06 µM
same,TGI,HS 578T breast,> 32.3 µM
same,TGI,HT29 colon,2.25 µM
same,TGI,IGROV1 ovarian,4.02 µM
same,TGI,K-562 leukemia,> 100 µM
same,TGI,KM12 colon,7.1 µM
same,TGI,LOX IMVI melanoma,1.56 µM
same,TGI,M14 melanoma,6.6 µM
same,TGI,MALME-3M melanoma,> 100 µM
same,TGI,MCF7 breast,> 34.5 µM
same,TGI,MDA-MB-231 breast,20 µM
same,TGI,MDA-N,8.69 µM
same,TGI,MOLT-4 leukemia,2.04 µM
same,TGI,NCI-H226 lung,> 29.9 µM
same,TGI,NCI-H23 lung,10 µM
same,TGI,NCI-H460 lung,6.44 µM
same,TGI,NCI/ADR-RES ovarian,4.18 µM
same,TGI,OVCAR-3 ovarian,3.37 µM
same,TGI,OVCAR-4 ovarian,48.9 µM
same,TGI,OVCAR-5 ovarian,8.06 µM
same,TGI,OVCAR-8 ovarian,5.38 µM
same,TGI,PC-3 prostate,9.2 µM
same,TGI,RXF 393 renal,2.68 µM
same,TGI,SF-268 CNS,> 26.2 µM
same,TGI,SF-295 CNS,20.2 µM
same,TGI,SF-539 CNS,3.98 µM
same,TGI,SK-MEL-2 melanoma,9.64 µM
same,TGI,SK-MEL-28 melanoma,2.89 µM
same,TGI,SK-MEL-5 melanoma,12.7 µM
same,TGI,SK-OV-3 ovarian,> 63.4 µM
same,TGI,SN12C renal,7.71 µM
same,TGI,SNB-19 CNS,15.5 µM
same,TGI,SNB-75 CNS,5.87 µM
same,TGI,SR leukemia,0.846 µM
same,TGI,T-47D breast,3.82 µM
same,TGI,TK-10 renal,3.07 µM
same,TGI,UACC-257 melanoma,6.93 µM
same,TGI,UACC-62 melanoma,2.81 µM
same,TGI,UO-31 renal,4 µM
CO[C@H]1C[C@H](O[C@H]2CC[C@]3(C=O)[C@H]4CC[C@]5(C)[C@@H](C6=CC(=O)OC6)CC[C@]5(O)[C@@H]4CC[C@]3(O)C2)O[C@H](C)[C@H]1O[C@@H]1O[C@H](CO)[C@@H](O)[C@H](O)[C@H]1O,TGI,A498 renal,0.000198 µM
same,TGI,A549 NSCLC,9.83e-06 µM
same,TGI,ACHN renal,0.000135 µM
same,TGI,BT-549 breast,4.72e-05 µM
same,TGI,CCRF-CEM leukemia,0.025 µM
same,TGI,COLO 205 colon,0.000867 µM
same,TGI,DU-145 prostate,1.66e-05 µM
same,TGI,EKVX NSCLC,2.03e-05 µM
same,TGI,HCC-2998 colon,0.0271 µM
same,TGI,HCT-116 colon,3.5e-05 µM
same,TGI,HCT-15 colon,8.31e-05 µM
same,TGI,HL-60(TB) leukemia,0.011 µM
same,TGI,HOP-62 NSCLC,4.25e-05 µM
same,TGI,HOP-92 NSCLC,0.000141 µM
same,TGI,HS 578T breast,> 100 µM
same,TGI,IGROV1 ovarian,0.139 µM
same,TGI,MDA-MB-231 breast,0.0025 µM
same,TGI,MDA-N,7.4e-05 µM
same,TGI,MOLT-4 leukemia,1.32e-05 µM
same,TGI,NCI-H23 lung,2.88e-05 µM
same,TGI,NCI-H460 lung,7.71e-05 µM
same,TGI,NCI-H522 lung,4.05e-05 µM
same,TGI,OVCAR-4 ovarian,3.07e-05 µM
same,TGI,OVCAR-5 ovarian,6.97e-05 µM
same,TGI,PC-3 prostate,0.000955 µM
same,TGI,RPMI-8226 leukemia,0.0001 µM
same,TGI,RXF 393 renal,0.000154 µM
same,TGI,SF-295 CNS,0.000289 µM
same,TGI,SF-539 CNS,5.85e-05 µM
same,TGI,SK-MEL-2 melanoma,0.000435 µM
same,TGI,SK-MEL-28 melanoma,0.000145 µM
same,TGI,SK-MEL-5 melanoma,9.72e-05 µM
same,TGI,SK-OV-3 ovarian,0.000153 µM
same,TGI,SN12C renal,3.64e-05 µM
same,TGI,SW-620 colon,7.47e-05 µM
same,TGI,T-47D breast,0.000185 µM
same,TGI,TK-10 renal,0.000395 µM
CN(C)CCCNc1ncnc2c1ncn2C1OC(CO)C(O)C1O (centres undefined),TGI,786-0 renal,> 100 µM
same,TGI,A498 renal,> 100 µM
same,TGI,A549 NSCLC,> 100 µM
same,TGI,ACHN renal,> 100 µM
same,TGI,BT-549 breast,> 100 µM
same,TGI,CAKI-1 renal,> 100 µM
same,TGI,CCRF-CEM leukemia,> 100 µM
same,TGI,COLO 205 colon,> 100 µM
same,TGI,DU-145 prostate,> 100 µM
same,TGI,EKVX NSCLC,> 100 µM
same,TGI,HCC-2998 colon,> 100 µM
same,TGI,HCT-116 colon,> 100 µM
same,TGI,HCT-15 colon,> 100 µM
same,TGI,HL-60(TB) leukemia,> 100 µM
same,TGI,HOP-62 NSCLC,> 100 µM
same,TGI,HOP-92 NSCLC,> 100 µM
same,TGI,HT29 colon,> 100 µM
same,TGI,IGROV1 ovarian,> 100 µM
same,TGI,K-562 leukemia,> 100 µM
same,TGI,KM12 colon,> 100 µM
same,TGI,LOX IMVI melanoma,> 100 µM
same,TGI,M14 melanoma,> 100 µM
same,TGI,MALME-3M melanoma,> 100 µM
same,TGI,MCF7 breast,> 100 µM
same,TGI,MDA-MB-231 breast,> 100 µM
same,TGI,MDA-MB-435,> 100 µM
same,TGI,MDA-N,> 100 µM
same,TGI,MOLT-4 leukemia,> 100 µM
same,TGI,NCI-H226 lung,> 100 µM
same,TGI,NCI-H23 lung,> 100 µM
same,TGI,NCI-H460 lung,> 100 µM
same,TGI,NCI-H522 lung,> 100 µM
same,TGI,NCI/ADR-RES ovarian,> 100 µM
same,TGI,OVCAR-3 ovarian,> 100 µM
same,TGI,OVCAR-4 ovarian,> 100 µM
same,TGI,OVCAR-5 ovarian,> 100 µM
same,TGI,OVCAR-8 ovarian,> 100 µM
same,TGI,PC-3 prostate,> 100 µM
same,TGI,RPMI-8226 leukemia,> 100 µM
same,TGI,RXF 393 renal,> 100 µM
same,TGI,SF-268 CNS,> 100 µM
same,TGI,SF-295 CNS,> 100 µM
same,TGI,SF-539 CNS,> 100 µM
same,TGI,SK-MEL-2 melanoma,> 100 µM
same,TGI,SK-MEL-28 melanoma,> 100 µM
same,TGI,SK-MEL-5 melanoma,> 100 µM
same,TGI,SK-OV-3 ovarian,> 100 µM
same,TGI,SN12C renal,> 100 µM
same,TGI,SNB-19 CNS,> 100 µM
same,TGI,SR leukemia,> 100 µM
same,TGI,SW-620 colon,> 100 µM
same,TGI,T-47D breast,> 100 µM
same,TGI,TK-10 renal,> 100 µM
same,TGI,U251 CNS,> 100 µM
same,TGI,UACC-257 melanoma,> 100 µM
same,TGI,UACC-62 melanoma,> 100 µM
same,TGI,UO-31 renal,> 100 µM
CCN(CC)C1CCC(C2c3cc4c(cc3OC(N3CCOCC3)C2C)OCO4)CC1 (centres undefined),TGI,786-0 renal,> 100 µM
same,TGI,A498 renal,60.7 µM
same,TGI,A549 NSCLC,> 100 µM
same,TGI,ACHN renal,> 100 µM
same,TGI,BT-549 breast,84.1 µM
same,TGI,CAKI-1 renal,> 100 µM
same,TGI,CCRF-CEM leukemia,> 100 µM
same,TGI,COLO 205 colon,> 100 µM
same,TGI,DU-145 prostate,> 100 µM
same,TGI,EKVX NSCLC,> 100 µM
same,TGI,HCC-2998 colon,40.3 µM
same,TGI,HCT-116 colon,> 100 µM
same,TGI,HCT-15 colon,> 100 µM
same,TGI,HL-60(TB) leukemia,89.8 µM
same,TGI,HOP-62 NSCLC,> 70.3 µM
same,TGI,HOP-92 NSCLC,> 100 µM
same,TGI,HS 578T breast,> 72.1 µM
same,TGI,HT29 colon,25.7 µM
same,TGI,IGROV1 ovarian,> 100 µM
same,TGI,K-562 leukemia,> 100 µM
same,TGI,KM12 colon,> 100 µM
same,TGI,LOX IMVI melanoma,> 100 µM
same,TGI,M14 melanoma,> 69.3 µM
same,TGI,MALME-3M melanoma,90.7 µM
same,TGI,MCF7 breast,> 84.1 µM
same,TGI,MDA-MB-435,> 100 µM
same,TGI,MDA-N,38 µM
same,TGI,MOLT-4 leukemia,> 68.2 µM
same,TGI,NCI-H23 lung,> 100 µM
same,TGI,NCI-H460 lung,> 100 µM
same,TGI,NCI-H522 lung,72.5 µM
same,TGI,NCI/ADR-RES ovarian,> 83.1 µM
same,TGI,OVCAR-3 ovarian,99.1 µM
same,TGI,OVCAR-4 ovarian,> 100 µM
same,TGI,OVCAR-5 ovarian,96.9 µM
same,TGI,OVCAR-8 ovarian,> 100 µM
same,TGI,PC-3 prostate,> 100 µM
same,TGI,RPMI-8226 leukemia,> 55.5 µM
same,TGI,RXF 393 renal,52.7 µM
same,TGI,SF-268 CNS,> 100 µM
same,TGI,SF-295 CNS,> 100 µM
same,TGI,SF-539 CNS,57 µM
same,TGI,SK-MEL-2 melanoma,42.2 µM
same,TGI,SK-MEL-28 melanoma,> 100 µM
same,TGI,SK-MEL-5 melanoma,> 55.7 µM
same,TGI,SN12C renal,> 100 µM
same,TGI,SNB-19 CNS,> 100 µM
same,TGI,SNB-75 CNS,> 100 µM
same,TGI,SR leukemia,> 100 µM
same,TGI,SW-620 colon,> 100 µM
same,TGI,T-47D breast,> 96.7 µM
same,TGI,TK-10 renal,> 100 µM
same,TGI,U251 CNS,> 100 µM
same,TGI,UACC-257 melanoma,> 100 µM
same,TGI,UACC-62 melanoma,> 100 µM
same,TGI,UO-31 renal,> 100 µM
